The results in this text go back to US11713338B2, “Cyclic peptides multimers targeting α-4-β-7 integrin” (priority 2016, dated 2023).

The structures appear in SMILES notation. pIC50: −log10 of the molar value.

The target in this experiment is T1, integrin α4β7 on α4β7+ memory T helper cells (Homo sapiens, UniProt P13612+P26010).
T1 construct: endogenous in cells
T1 sequence (P13612 34-1032): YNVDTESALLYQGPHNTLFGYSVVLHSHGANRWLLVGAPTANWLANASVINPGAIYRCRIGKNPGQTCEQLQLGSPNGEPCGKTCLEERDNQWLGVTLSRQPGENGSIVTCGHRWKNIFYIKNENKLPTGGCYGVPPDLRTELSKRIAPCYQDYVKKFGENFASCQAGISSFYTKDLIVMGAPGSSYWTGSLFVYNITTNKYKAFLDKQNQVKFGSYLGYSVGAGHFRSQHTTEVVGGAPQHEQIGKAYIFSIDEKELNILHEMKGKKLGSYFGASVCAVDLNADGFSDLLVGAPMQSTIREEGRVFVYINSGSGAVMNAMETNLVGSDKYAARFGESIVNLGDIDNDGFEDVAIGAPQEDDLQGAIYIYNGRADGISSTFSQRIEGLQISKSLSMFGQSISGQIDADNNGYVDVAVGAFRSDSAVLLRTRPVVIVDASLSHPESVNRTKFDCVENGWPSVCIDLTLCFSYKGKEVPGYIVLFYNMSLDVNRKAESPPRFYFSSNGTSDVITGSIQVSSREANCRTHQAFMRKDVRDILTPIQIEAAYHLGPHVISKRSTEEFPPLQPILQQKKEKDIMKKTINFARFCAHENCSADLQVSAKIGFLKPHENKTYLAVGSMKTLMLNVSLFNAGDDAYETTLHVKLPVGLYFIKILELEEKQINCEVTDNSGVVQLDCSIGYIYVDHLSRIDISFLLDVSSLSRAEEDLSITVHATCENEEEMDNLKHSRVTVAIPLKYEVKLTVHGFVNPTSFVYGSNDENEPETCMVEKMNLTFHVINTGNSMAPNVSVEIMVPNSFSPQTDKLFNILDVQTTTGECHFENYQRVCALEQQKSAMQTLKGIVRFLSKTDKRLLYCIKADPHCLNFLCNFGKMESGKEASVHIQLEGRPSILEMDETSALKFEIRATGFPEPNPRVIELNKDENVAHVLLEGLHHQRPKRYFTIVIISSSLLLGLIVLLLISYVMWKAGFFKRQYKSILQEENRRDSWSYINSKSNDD
T1 sequence (P26010 20-798): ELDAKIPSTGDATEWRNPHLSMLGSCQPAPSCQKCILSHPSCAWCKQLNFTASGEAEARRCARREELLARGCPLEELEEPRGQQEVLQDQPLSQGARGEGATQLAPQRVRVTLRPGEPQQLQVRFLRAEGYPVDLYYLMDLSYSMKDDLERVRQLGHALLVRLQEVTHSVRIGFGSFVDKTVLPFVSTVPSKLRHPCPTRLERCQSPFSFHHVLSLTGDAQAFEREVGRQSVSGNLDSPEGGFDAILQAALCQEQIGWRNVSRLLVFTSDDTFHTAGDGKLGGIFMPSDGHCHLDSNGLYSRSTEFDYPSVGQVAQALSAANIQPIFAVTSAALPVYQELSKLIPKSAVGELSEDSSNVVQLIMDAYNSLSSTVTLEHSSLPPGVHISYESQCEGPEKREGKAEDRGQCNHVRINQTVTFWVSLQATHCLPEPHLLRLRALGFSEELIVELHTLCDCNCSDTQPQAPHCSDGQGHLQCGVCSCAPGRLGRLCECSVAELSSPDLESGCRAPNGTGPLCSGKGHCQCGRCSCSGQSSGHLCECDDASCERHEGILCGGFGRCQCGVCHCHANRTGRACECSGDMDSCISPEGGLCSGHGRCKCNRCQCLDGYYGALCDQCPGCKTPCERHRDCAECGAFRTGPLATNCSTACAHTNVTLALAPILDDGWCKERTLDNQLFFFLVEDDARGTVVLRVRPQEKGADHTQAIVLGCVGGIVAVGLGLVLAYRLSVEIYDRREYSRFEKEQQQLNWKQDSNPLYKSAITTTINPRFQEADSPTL
As to the kind of experiment: MAdCAM-1 competition / receptor occupancy assay in human whole blood, α4β7-positive Th memory cells. As to conditions: human whole blood, inhibition of MAdCAM-1 binding to α4β7-positive Th memory cells, FACS; read-out: MADCAM FACS α4β7 Th mem. In kind it is cell-based. How it is done: Analyte Competition Assay in CD4+ Integrin α4+β7-Lo Memory T Cells
Receptor occupancy in primary cells was determined by measuring the amount of biotinylated human recombinant MAdCAM-1-FC or human recombinant VCAM-1-Fc bound to selected cell populations using flow cytometry. Human recombinant MAdCAM-1-FC or human recombinant VCAM-1-FC (R&D systems) were biotinylated using commercially available reagents and protocol (Pierce).
Whole blood was collected from human donors in sodium heparin tubes. […] Cells were washed twice with 1 mL of 1X DPBS calcium magnesium free (CMF) (ThermoFisher Scientific) and resuspended in 100 microL of DPBS CMF.
Biotinylated human recombinant MAdCAM-1-Fc or VCAM-1-Fc were added at saturating concentration and incubated at room temperature for 1 hour. […] Cells were washed with 1 mL stain buffer-FBS (BD Biosciences) and resuspended in 100 μl stain Buffer-FBS (BD Biosciences) containing 4 mM MnCl2. […] Cells were then washed with 1 mL stain buffer-FBS and resuspended in […] stain buffer-FBS. The cells were incubated in the dark for 30 minutes at room temperature with 1 ul Streptavidin APC (Biolegend 0.2 mg/ml) and a panel of antibodies for the detection of memory T helper a4b7-positive cells subset. And amount of 5.0 ul each of the following antibodies were used; CD45 FITC (BioLegend 200 ug/ml), CD29 APC Cy7 (BioLegend 100 ug/ml), Integrin beta7 PE, (BioLegend concentration 50 μg/mL), CD49d V421 (BioLegend 50 μg/mL), CD3 V510 (BioLegend 30 μg/mL), CD4 PECy7 (BioLegend 100 μg/mL), CD45RO PerCP, BioLegend 200 μg/mL). The cells were then washed with stain-buffer-FBS and resuspended in 150 microL stain buffer-FBS for acquisition on the flow cytometer (BD FACSCanto™ flow cytometer and BDFACSDiva™ software). FACS data was acquire by electronic gating on the basis of forward versus side scatter, The cytometer was set to collect 20,000 events in each tube. Cell population were determined using the following markers, CD45+, CD3+, CD4+, CD45RO+, CD49d+, integrin b7, biotinylated ligands.
Compound receptor occupancy was defined as the decrease in the number of integrin β7+ or integrin β7-lo cells binding biotinylated rhMAdCAM-1 or rhVCAM-1, respectively.
Receptor occupancy was calculated with the following equation: 100−((% ligand-positive cells with compound/% ligand-positive cells DMSO)*100) In Vivo T Lymphocyte Trafficking Analysis in Mouse Model of Colitis
In the case of `CC(C)C[C@@H]1NC(=O)c2ccc(-c3ccc(N4CCN(C(=O)CCOCCOCCOCCOCCOCCOCCOCCOCCOCCOCCC(=O)N5CCN(c6ccc(-c7ccc8cc7CNC(=O)[C@@H]7CCCN7[C@H](C(=O)NC(C)(C)C)[C@H](C)NC(=O)[C@H]([C@@H](C)O)NC(=O)[C@H](CC(=O)O)NC(=O)[C@H](CC(C)C)NC8=O)cc6)CC5)CC4)cc3)c(c2)CNC(=O)[C@@H]2CCCN2[C@H](C(=O)NC(C)(C)C)[C@H](C)NC(=O)[C@H]([C@@H](C)O)NC(=O)[C@H](CC(=O)O)NC1=O` [Compound 511], the pIC50 was 6.74.
For `CC(C)C[C@@H]1NC(=O)c2ccc(-c3ccc(N4CCN(C(=O)CC[C@H](N)C(=O)N5CCN(c6ccc(-c7ccc8cc7CNC(=O)[C@@H]7CCCN7[C@H](C(=O)NC(C)(C)C)[C@H](C)NC(=O)[C@H]([C@@H](C)O)NC(=O)[C@H](CC(=O)O)NC(=O)[C@H](CC(C)C)NC8=O)cc6)CC5)CC4)cc3)c(c2)CNC(=O)[C@@H]2CCCN2[C@H](C(=O)NC(C)(C)C)[C@H](C)NC(=O)[C@H]([C@@H](C)O)NC(=O)[C@H](CC(=O)O)NC1=O` [Compound 494], the pIC50 was 6.89.
On to `CC(C)C[C@@H]1NC(=O)c2ccc(-c3ccc(N4CCN(C(=O)C[C@@H](N)C(=O)N5CCN(c6ccc(-c7ccc8cc7CNC(=O)[C@@H]7CCCN7[C@H](C(=O)NC(C)(C)C)[C@H](C)NC(=O)[C@H]([C@@H](C)O)NC(=O)[C@H](CC(=O)O)NC(=O)[C@H](CC(C)C)NC8=O)cc6)CC5)CC4)cc3)c(c2)CNC(=O)[C@@H]2CCCN2[C@H](C(=O)NC(C)(C)C)[C@H](C)NC(=O)[C@H]([C@@H](C)O)NC(=O)[C@H](CC(=O)O)NC1=O` [Compound 493], for which the pIC50 is 7.03.
In the case of `CC(C)C[C@@H]1NC(=O)c2ccc(-c3ccc(N4CCN(C(=O)C56CC7CC(C5)CC(C(=O)N5CCN(c8ccc(-c9ccc%10cc9CNC(=O)[C@@H]9CCCN9[C@H](C(=O)NC(C)(C)C)[C@H](C)NC(=O)[C@H]([C@@H](C)O)NC(=O)[C@H](CC(=O)O)NC(=O)[C@H](CC(C)C)NC%10=O)cc8)CC5)(C7)C6)CC4)cc3)c(c2)CNC(=O)[C@@H]2CCCN2[C@H](C(=O)NC(C)(C)C)[C@H](C)NC(=O)[C@H]([C@@H](C)O)NC(=O)[C@H](CC(=O)O)NC1=O` [Compound 460], the pIC50 was 6.97.
Take `CC(C)C[C@@H]1NC(=O)c2ccc(-c3ccc(N4CCN(C(=O)c5ccc(-c6cccc(C(=O)N7CCN(c8ccc(-c9ccc%10cc9CNC(=O)[C@@H]9CCCN9[C@H](C(=O)NC(C)(C)C)[C@H](C)NC(=O)[C@H]([C@@H](C)O)NC(=O)[C@H](CC(=O)O)NC(=O)[C@H](CC(C)C)NC%10=O)cc8)CC7)n6)nc5)CC4)cc3)c(c2)CNC(=O)[C@@H]2CCCN2[C@H](C(=O)NC(C)(C)C)[C@H](C)NC(=O)[C@H]([C@@H](C)O)NC(=O)[C@H](CC(=O)O)NC1=O` [Compound 466]: the pIC50 is 6.79.
Take `CC(C)C[C@@H]1NC(=O)c2ccc(-c3ccc(N4CCN(C(=O)c5cc(C(=O)N6CCN(c7ccc(-c8ccc9cc8CNC(=O)[C@@H]8CCCN8[C@H](C(=O)NC(C)(C)C)[C@H](C)NC(=O)[C@H]([C@@H](C)O)NC(=O)[C@H](CC(=O)O)NC(=O)[C@H](CC(C)C)NC9=O)cc7)CC6)cc(C(=O)N6CCN(c7ccc(-c8ccc9cc8CNC(=O)[C@@H]8CCCN8[C@H](C(=O)NC(C)(C)C)[C@H](C)NC(=O)[C@H]([C@@H](C)O)NC(=O)[C@H](CC(=O)O)NC(=O)[C@H](CC(C)C)NC9=O)cc7)CC6)c5)CC4)cc3)c(c2)CNC(=O)[C@@H]2CCCN2[C@H](C(=O)NC(C)(C)C)[C@H](C)NC(=O)[C@H]([C@@H](C)O)NC(=O)[C@H](CC(=O)O)NC1=O` [Compound 520]: the pIC50 is 8.92.
Take `CC(C)C[C@@H]1NC(=O)c2ccc(-c3ccc(N4CCN(Cc5cccc(CN6CCN(c7ccc(-c8ccc9cc8CNC(=O)[C@@H]8CCCN8[C@H](C(=O)NC(C)(C)C)[C@H](C)NC(=O)[C@H]([C@@H](C)O)NC(=O)[C@H](CC(=O)O)NC(=O)[C@H](CC(C)C)NC9=O)cc7)CC6)c5)CC4)cc3)c(c2)CNC(=O)[C@@H]2CCCN2[C@H](C(=O)NC(C)(C)C)[C@H](C)NC(=O)[C@H]([C@@H](C)O)NC(=O)[C@H](CC(=O)O)NC1=O` [Compound 499]: the pIC50 is 7.39.
Regarding `CC(C)C[C@@H]1NC(=O)c2ccc(-c3ccc(N4CCN(C(=O)c5cc(F)ccc5-c5ccc(F)cc5C(=O)N5CCN(c6ccc(-c7ccc8cc7CNC(=O)[C@@H]7CCCN7[C@H](C(=O)NC(C)(C)C)[C@H](C)NC(=O)[C@H]([C@@H](C)O)NC(=O)[C@H](CC(=O)O)NC(=O)[C@H](CC(C)C)NC8=O)cc6)CC5)CC4)cc3)c(c2)CNC(=O)[C@@H]2CCCN2[C@H](C(=O)NC(C)(C)C)[C@H](C)NC(=O)[C@H]([C@@H](C)O)NC(=O)[C@H](CC(=O)O)NC1=O` [Compound 475], the pIC50 is 7.13.
Consider `CC(C)C[C@@H]1NC(=O)c2ccc(-c3ccc(N4CCN(C(=O)c5ccc(C(=O)N6CCN(c7ccc(-c8ccc9cc8CNC(=O)[C@@H]8CCCN8[C@H](C(=O)NC(C)(C)C)[C@H](C)NC(=O)[C@H]([C@@H](C)O)NC(=O)[C@H](CC(=O)O)NC(=O)[C@H](CC(C)C)NC9=O)cc7)CC6)s5)CC4)cc3)c(c2)CNC(=O)[C@@H]2CCCN2[C@H](C(=O)NC(C)(C)C)[C@H](C)NC(=O)[C@H]([C@@H](C)O)NC(=O)[C@H](CC(=O)O)NC1=O` [Compound 470], for which the pIC50 is 7.09.
With `COc1cc(C(=O)N2CCN(c3ccc(-c4ccc5cc4CNC(=O)[C@@H]4CCCN4[C@H](C(=O)NC(C)(C)C)[C@H](C)NC(=O)[C@H]([C@@H](C)O)NC(=O)[C@H](CC(=O)O)NC(=O)[C@H](CC(C)C)NC5=O)cc3)CC2)cc(-c2ccc(C(=O)N3CCN(c4ccc(-c5ccc6cc5CNC(=O)[C@@H]5CCCN5[C@H](C(=O)NC(C)(C)C)[C@H](C)NC(=O)[C@H]([C@@H](C)O)NC(=O)[C@H](CC(=O)O)NC(=O)[C@H](CC(C)C)NC6=O)cc4)CC3)cc2F)c1` [Compound 464], the pIC50 is 6.63.
